Test results from patent publication US20050002868A1, “Method of treatment of a female suffering from androgen insufficiency” (Acrux DDS Pty Ltd., priority 2003, published 2005).

Test: Open label, randomised two-way cross-over pharmacokinetic study of free serum testosterone after daily transdermal spray for 5 days
Assay type: in vivo, women
Protocol: The study was a single centre, open label pharmacokinetic study, with a randomised, two-way, cross-over design. The two treatment periods were 5 days with an eight day washout between treatments. Intensive blood sampling was performed on day 5 of each treatment period for pharmacokinetic analysis. The treatments consisted of daily application of 2×91 μL sprays for 5 days, either applied to the abdomen or forearm. Free serum testosterone concentration profiles were measured over 24 hours after daily administration of transdermal testosterone for 5 days to 6 healthy surgically menopausal women stabilized on oral oestrogen therapy. HPLC separation (followed by RIA) and equilibrium dialysis were used to measure free testosterone (Esoterix Inc.).

C[C@]12CC[C@H]3[C@@H](CCC4=CC(=O)CC[C@@]43C)[C@@H]1CC[C@@H]2O [testosterone]
average serum concentrations of free testosterone, forearm compared with abdomen (application to the forearm, day 5, FIG. 1): significantly higher | Steady-state concentrations of free testosterone (daily application for 5 days, abdomen or forearm): attained on day 5 | variation of free testosterone serum concentrations, abdomen compared with forearm (dose application to the abdomen, day 5, FIG. 1): considerably less variation
